Laboratory results: US8178506B2, “Oligomeric compounds and compositions for use in modulation of small non-coding RNAs” (Regulus Therapeutics Inc., priority 2003, dated 2012)
e = 2'-O-(2-methoxyethyl) (MOE); d = 2'-deoxy (DNA)

Experiments:
mir-15a pri-miRNA = mir-15a pri-miRNA expression in T47D cells (real-time RT-PCR); assay type: cell-based, human; conditions: real-time RT-PCR
Method in brief: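 T47D cells transfected with 100 nM uniform 2′-MOE or gapmer oligomers. Pri-miRNA measured by real-time RT-PCR with a mir-15a-specific primer/probe set, normalized to 5.8S rRNA, expressed as percentage of untreated control RNA levels.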

[1] = test system: BJ, B16-F10, T47D, T47Dp53 and HeLa cells; experiment: Cell cycle assay (propidium iodide flow cytometry), cell line panel; assay type: cell-based; conditions: 150 nM, 72 hours (Table 29)

Substance | mir-15a pri-miRNA expression % UTC (mir-15a pri-miRNA) | percentage of cells in the G2/M phase [1] | percentage of cells with hypodiploid DNA content (subG1) [1]
129690 (antisense TTAGAATACGTCGCGTTATG; sugars from the 5' end e5 d10 e5, all phosphorothioate, methylation of C not given here) [compound 129690] | 121 % UTC |  | 
CTAGTGGTCCTAAACATTTCAC (chemistry not given here) [ISIS 327878, uniform 2′-MOE PS; targets mir-203] |  | increased percentage of cells in the G2/M phase | increased percentage of cells with hypodiploid DNA content
